# Experimental data taken from article PMC6327999, “Hydroxyl-substituted double Schiff-base condensed 4-piperidone/cyclohexanones as potential anticancer agents with biological evaluation” (Journal of Enzyme Inhibition and Medicinal Chemistry, 2019).
# Tests used:
# Type in all cases: cell-based
# [1] = system: human gastric adenocarcinoma cells (SGC7901); assay: Cytotoxicity, MTT assay, SGC7901; details: for IC50: Homo sapiens, SGC-7901, MTT, 24 hours; for SGC7901 SI: quotient of the IC50 values towards nonmalignant LO2 cells
# From the text: (§1) Compounds 2a–d, 3a–e, 4a–e, 5a–d, and 6a–c were screened against human neoplastic cell lines such as human lung carcinoma cells (A549), human gastric adenocarcinoma cells (SGC7901), human cervical carcinoma cells (HeLa), human liver hepatocellular carcinoma cell line (Hepg2), human chronic myelogenous leukemia cell line (K562), human acute mononuclear granulocyte leukemia (THP-1), human normal heptical cell line (LO2) (Table 1) using modified MTT assay (3-(4,5-dimethyl-2-thiazolyl)-2,5-diphenyl-2-H-tetrazolium bromide, MTT, Dojindo Laboratories, Tokyo, Japan). All cell lines were maintained at 37 °C in a humidified 5% CO2 and 95% air atmosphere. The HePG2 cell lines were cultured in DMEM containing 10% fetal bovine serum. Other cell lines were grown in medium 1640 and supplemented with 10% fetal bovine serum. […] Controls were prepared with 0.1% DMSO (v/v) only. The cells were seeded in a 96-well plate in 200 µL medium per well at a density of 1 × 10^4 cells/well for 24 hours. The cells were treated with serial concentrations of compound and incubated for 24 hours. Cells with only culture media were used as control. After the media was removed, 20 µL of MTT (5 mg/mL) was added then the plates were incubated for 4 hours at 37 °C in cell culture incubator. The MTT containing media were removed and then 150 µL of DMSO was added to dissolve the dark-blue formazan crystals. The optical density (OD) was measured by a multi-well plate reader (TECAN, Männedorf, Switzerland) at 570 nm. The results are expressed as a decrease in the cell viability (%) in comparison to untreated controls. The concentration of each compound was examined in triplicate, and the IC50 values are expressed in Table 1. The concentrations of the compounds were 50, 20, 10, 5, 2.5, 1, 0.5, 0.1, 0.05 and 0.01 µg/mL. Doxorubicin (DOX) and Curcumin were used as positive controls. […] The concentrations of curcumin used were 100, 50, 25, 12.5, 6.25, 3.125, 1, 0.5 and 0.1 µg/mL.
# [2] = system: human liver hepatocellular carcinoma cell line (Hepg2); assay: Cytotoxicity, MTT assay, HePG2; details: for IC50: Homo sapiens, HepG2, MTT, 24 hours; for HePG2 SI: quotient of the IC50 values towards nonmalignant LO2 cells
# From the text: as §1, with “µg/mL.” for “µg/mL. Doxorubicin (DOX) and Curcumin were used as positive controls.”
# [3] = system: human acute mononuclear granulocyte leukemia (THP-1); assay: Cytotoxicity, MTT assay, THP-1; details: for IC50: Homo sapiens, THP-1, MTT, 24 hours; for THP-1 SI: quotient of the IC50 values towards nonmalignant LO2 cells
# From the text: as §1
# [4] = system: human chronic myelogenous leukemia cell line (K562); assay: Cytotoxicity, MTT assay, K562; details: for IC50: Homo sapiens, K562, MTT, 24 hours; for K562 SI: quotient of the IC50 values towards nonmalignant LO2 cells
# From the text: as §1
# [5] = system: human cervical carcinoma cells (HeLa); assay: Cytotoxicity, MTT assay, HeLa; details: for IC50: Homo sapiens, HeLa, MTT, 24 hours; for HeLa SI: quotient of the IC50 values towards nonmalignant LO2 cells
# From the text: as §1
# [6] = system: human carcinoma cell lines A549, SGC7901, HePG2, HeLa, K562, THP-1; assay: Cytotoxicity, MTT assay, panel of human carcinoma cell lines (average / overall); details: average over the six carcinoma cell lines; for IC50: Homo sapiens, read-out: Ave IC50
# From the text: as §1
# The cytotoxicity activities against human carcinoma cell lines A549, SGC7901, HePG2, HeLa, K562, THP-1 and cytotoxicity toward LO2 cell lines were evaluated by MTT method. DOX and curcumin were used as positive control. The selectivity index (SI) is the quotient of the IC50 values towards nonmalignant LO2 cells. […] Especially for 4a–e, 5a–d, and 6a–c, this ratio can reach about 92%.
# [7] = system: human lung carcinoma cells (A549); assay: Cytotoxicity, MTT assay, A549; details: for IC50: Homo sapiens, A549, MTT, 24 hours; for A549 SI: quotient of the IC50 values towards nonmalignant LO2 cells
# From the text: as §1
# [8] = system: human normal heptical cell line (LO2); assay: Cytotoxicity, MTT assay, non-malignant LO2; details: 24 hours, non-malignant cells
# From the text: as §1
Structure (SMILES),IC50 [1],SGC7901 SI [1],IC50 [2],HePG2 SI [2],IC50 [3],THP-1 SI [3],IC50 [4],K562 SI [4],IC50 [5],HeLa SI [5],IC50 [6],Ave SI [6],IC50 [7],A549 SI [7],IC50 [8]
COc1ccc(/C=N/c2cccc(/C=C3\CCC/C(=C\c4cccc(/N=C/c5ccc(OC)cc5O)c4)C3=O)c2)c(O)c1 [3d],7.1 ± 1 µM,1.6,4 ± 0.1 µM,2.9,3.2 ± 0.03 µM,3.6,3.2 ± 0.02 µM,3.6,13.1 ± 1 µM,0.9,5.8 µM,2.5,4.1 ± 0.6 µM,2.8,11.3 ± 0.1 µM
COc1cc(Br)cc(/C=N/c2cccc(/C=C3\CCC/C(=C\c4cccc(/N=C/c5cc(Br)cc(OC)c5O)c4)C3=O)c2)c1O [3e],3 ± 0.8 µM,3.8,1.9 ± 0.01 µM,6.0,3.3 ± 0.1 µM,3.4,4.2 ± 0.1 µM,2.7,12.8 ± 0.9 µM,0.9,4.6 µM,3.5,2.5 ± 0.4 µM,4.4,11.3 ± 0.3 µM
CN1C/C(=C\c2cccc(/N=C/c3ccccc3O)c2)C(=O)/C(=C/c2cccc(/N=C/c3ccccc3O)c2)C1 [4a],8.3 ± 0.8 µM,1.3,2.59 ± 0.1 µM,4.1,0.9 ± 0.1 µM,12.0,2.8 ± 0.1 µM,3.8,6.3 ± 0.2 µM,1.7,4.3 µM,4.2,5.2 ± 0.4 µM,2.1,10.6 ± 0.1 µM
CN1C/C(=C\c2cccc(/N=C/c3cc(F)ccc3O)c2)C(=O)/C(=C/c2cccc(/N=C/c3cc(F)ccc3O)c2)C1 [4b],1.4 ± 0.2 µM,10.0,1.07 ± 0.1 µM,12.9,1.2 ± 0.03 µM,11.5,2.15 ± 1 µM,6.4,3.5 ± 0.1 µM,4.0,2.2 µM,8.0,4.1 ± 0.4 µM,3.4,13.8 ± 0.1 µM
CN1C/C(=C\c2cccc(/N=C/c3cc(Br)ccc3O)c2)C(=O)/C(=C/c2cccc(/N=C/c3cc(Br)ccc3O)c2)C1 [4c],3 ± 0.3 µM,4.3,3.54 ± 0.1 µM,3.6,2.5 ± 0.2 µM,5.1,6.2 ± 0.7 µM,2.1,4.7 ± 0.1 µM,2.8,4.8 µM,3.2,9 ± 0.8 µM,1.4,12.8 ± 0.2 µM
COc1ccc(/C=N/c2cccc(/C=C3\CN(C)C/C(=C\c4cccc(/N=C/c5ccc(OC)cc5O)c4)C3=O)c2)c(O)c1 [4d],2.3 ± 0.1 µM,5.1,1.11 ± 0.1 µM,10.6,1 ± 0.03 µM,12.3,2 ± 0.02 µM,6.0,4.1 ± 0.1 µM,2.8,2.2 µM,6.9,2.6 ± 0.5 µM,4.4,11.7 ± 0.1 µM
COc1cc(Br)cc(/C=N/c2cccc(/C=C3\CN(C)C/C(=C\c4cccc(/N=C/c5cc(Br)cc(OC)c5O)c4)C3=O)c2)c1O [4e],2 ± 0.3 µM,5.4,1.27 ± 0.02 µM,8.6,0.9 ± 0.1 µM,11.8,1.8 ± 0.01 µM,5.9,2.6 ± 0.1 µM,4.2,1.7 µM,7.2,1.5 ± 0.3 µM,7.2,10.9 ± 0.2 µM
O=C1/C(=C/c2cc(/N=C/c3cccc(O)c3O)ccc2F)CNC/C1=C\c1cc(/N=C/c2cccc(O)c2O)ccc1F [5a],1.6 ± 0.1 µM,11.2,1.8 ± 0.05 µM,9.7,1 ± 0.3 µM,18.5,1.5 ± 0.1 µM,11.7,1.1 ± 0.4 µM,15.0,1.6 µM,12.1,2.8 ± 0.2 µM,6.4,17.6 ± 1 µM
O=C1/C(=C/c2cc(/N=C/c3cc(O)ccc3O)ccc2F)CNC/C1=C\c1cc(/N=C/c2cc(O)ccc2O)ccc1F [5b],1.3 ± 0.2 µM,10.9,3.3 ± 0.2 µM,4.3,2.2 ± 0.1 µM,6.4,5.7 ± 0.4 µM,2.5,4.2 ± 0.5 µM,3.4,3.3 µM,5.4,3 ± 0.1 µM,4.8,14.1 ± 1 µM
COc1ccc(/C=N/c2ccc(F)c(/C=C3\CNC/C(=C\c4cc(/N=C/c5ccc(OC)cc5O)ccc4F)C3=O)c2)c(O)c1 [5d],1.8 ± 0.1 µM,8.3,2.7 ± 0.2 µM,5.6,2.1 ± 0.2 µM,6.8,1.5 ± 0.1 µM,9.7,3.8 ± 0.2 µM,3.8,2.4 µM,6.7,2.5 ± 0.1 µM,5.8,14.6 ± 1.26 µM
CN1C/C(=C\c2cc(/N=C/c3cccc(O)c3O)ccc2F)C(=O)/C(=C/c2cc(/N=C/c3cccc(O)c3O)ccc2F)C1 [6a],2.4 ± 0.1 µM,9.2,2.6 ± 0.1 µM,8.4,1.5 ± 0.2 µM,14.2,2.8 ± 0.2 µM,7.7,2.2 ± 0.2 µM,9.9,2.2 µM,10.2,1.9 ± 0.1 µM,11.6,21.7 ± 2 µM
CN1C/C(=C\c2cc(/N=C/c3cc(O)ccc3O)ccc2F)C(=O)/C(=C/c2cc(/N=C/c3cc(O)ccc3O)ccc2F)C1 [6b],2.6 ± 0.1 µM,8.3,2.7 ± 0.2 µM,7.8,1.8 ± 0.1 µM,12.0,5.1 ± 0.3 µM,4.2,3.4 ± 0.4 µM,6.2,3 µM,7.9,2.3 ± 0.1 µM,9.1,21.3 ± 2 µM
